Data taken from the supplement of paper PMC10307832.

compound: C1CSC2=C(C(=O)N1)SC3=C2C=C(C=C3)O [kb NB 142-70] + CC(C)C[C@H](NC(=O)[C@H](Cc1ccccc1)NC(=O)c1cnccn1)B(O)O [Bortezomib] (partner 0.002 µM); assay: relative viability (nuclei count vs DMSO), 5 days (fraction); higher = more cells survive; details: first compound 1 µM
Method in brief: (§1)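 Dosing by pin tool came one day after lung cancer cell lines were seeded in 1536-well plates, using either one drug or a fixed anchor-drug dose plus five library-drug doses (not always all listed) in √10 steps. After 5 days, nuclei were counted on 4× images. Relative viability is treated-well nuclei count divided by vehicle-well nuclei count, and values are medians of duplicate plates.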

Cell Line	relative viability
HCC-827	1.02
LXF-289	0.942
NCI-H23	0.896
NCI-H647	0.773
NCI-H1651	0.863
EPLC-272H	1.06
NCI-H1792	0.988
NCI-H1355	1.16
NCI-H3122	1.06
NCI-H1437	0.492
NCI-H1755	0.98
HCC-15	1.1
PC-14	0.932
EKVX	1.05
LC-2-ad	1.03
NCI-H1975	0.283

same assay, conditions: first compound 3.162 µM

Cell Line	relative viability
ChaGo-K-1	0.951
NCI-H2405	1.01
HOP-62	0.569
HCC-44	0.899
LU99A	0.732
BEN	0.418
HARA	0.964
HCC-78	0.556
NCI-H322M	1.3
LCLC-97TM1	0.123
A-427	1.01
NCI-H441	0.307
NCI-H1734	0.49
NCI-H460	0.608
NCI-H2347	1.07
201T	1.11
NCI-H1915	0.85

Cell Line	relative viability
HCC-827	0.978
LXF-289	0.895
NCI-H23	0.516
NCI-H647	1.06
NCI-H1651	0.857
EPLC-272H	0.72
NCI-H1792	1.01
NCI-H1355	1.22
NCI-H3122	1.03
NCI-H1437	0.482
NCI-H1755	1
HCC-15	1.1
PC-14	0.82
EKVX	0.993
LC-2-ad	0.916
NCI-H1975	0.153

compound: NCC(=O)Nc1ccc(-n2nc(C(F)(F)F)cc2-c2ccc3c(ccc4ccccc43)c2)cc1 + NC(=O)Nc1cc(-c2cccc(F)c2)sc1C(=O)N[C@H]1CCCNC1 [AZD7762] (partner 0.2 µM); assay: as above; details: first compound 0.02 µM
Method in brief: as §1

Cell Line	relative viability
ChaGo-K-1	0.81
NCI-H2405	0.725
HOP-62	0.646
HCC-44	1
LU99A	0.333
BEN	0.627
HARA	0.227
HCC-78	0.77
NCI-H322M	0.569
LCLC-97TM1	0.284
A-427	0.757
NCI-H441	1.12
NCI-H1734	0.52
NCI-H460	0.773
NCI-H2347	0.719
201T	0.599
NCI-H1915	0.644

Cell Line	relative viability
HCC-827	0.213
LXF-289	1.14
NCI-H23	0.191
NCI-H647	0.384
NCI-H1651	0.447
EPLC-272H	0.362
NCI-H1792	0.725
NCI-H1355	0.717
NCI-H3122	0.897
NCI-H1437	0.974
NCI-H1755	0.448
HCC-15	1.28
PC-14	0.419
EKVX	0.748
LC-2-ad	1.09
NCI-H1975	0.732

same assay, conditions: first compound 0.06325 µM

Cell Line	relative viability
ChaGo-K-1	0.869
NCI-H2405	0.781
HOP-62	0.482
HCC-44	1.05
LU99A	0.387
BEN	0.76
HARA	0.429
HCC-78	0.597
NCI-H322M	0.711
LCLC-97TM1	0.253
A-427	0.719
NCI-H441	1.1
NCI-H1734	0.556
NCI-H460	0.684
NCI-H2347	0.696
201T	0.657
NCI-H1915	0.729

Cell Line	relative viability
HCC-827	0.189
LXF-289	1.13
NCI-H23	0.249
NCI-H647	0.39
NCI-H1651	0.433
EPLC-272H	0.208
NCI-H1792	0.772
NCI-H1355	0.776
NCI-H3122	0.983
NCI-H1437	1.21
NCI-H1755	0.569
HCC-15	1.13
PC-14	0.367
EKVX	0.823
LC-2-ad	0.875
NCI-H1975	0.699

same assay, conditions: first compound 0.2 µM

Cell Line	relative viability
ChaGo-K-1	0.807
NCI-H2405	0.774
HOP-62	0.693
HCC-44	0.997
LU99A	0.389
BEN	0.789
HARA	0.304
HCC-78	0.599
NCI-H322M	0.578
LCLC-97TM1	0.28
A-427	0.854
NCI-H441	1.32
NCI-H1734	0.565
NCI-H460	0.633
NCI-H2347	0.756
201T	0.625
NCI-H1915	0.642

Cell Line	relative viability
HCC-827	0.245
LXF-289	1.01
NCI-H23	0.219
NCI-H647	0.524
NCI-H1651	0.513
EPLC-272H	0.196
NCI-H1792	0.759
NCI-H1355	0.797
NCI-H3122	1
NCI-H1437	1.13
NCI-H1755	0.448
HCC-15	1.21
PC-14	0.36
EKVX	0.651
LC-2-ad	0.772
NCI-H1975	0.777

same assay, conditions: first compound 0.6325 µM

Cell Line	relative viability
ChaGo-K-1	0.913
NCI-H2405	0.728
HOP-62	0.566
HCC-44	1.01
LU99A	0.341
BEN	0.798
HARA	0.392
HCC-78	0.668
NCI-H322M	0.636
LCLC-97TM1	0.39
A-427	0.693
NCI-H441	1.06
NCI-H1734	0.515
NCI-H460	0.623
NCI-H2347	0.817
201T	0.656
NCI-H1915	0.703

Cell Line	relative viability
HCC-827	0.316
LXF-289	1.12
NCI-H23	0.274
NCI-H647	0.431
NCI-H1651	0.47
EPLC-272H	0.167
NCI-H1792	0.822
NCI-H1355	0.776
NCI-H3122	1.01
NCI-H1437	1.1
NCI-H1755	0.394
HCC-15	1.36
PC-14	0.328
EKVX	0.607
LC-2-ad	0.849
NCI-H1975	0.691

same assay, conditions: first compound 2 µM

Cell Line	relative viability
ChaGo-K-1	0.897
NCI-H2405	0.718
HOP-62	0.711
HCC-44	1.03
LU99A	0.355
BEN	0.628
HARA	0.473
HCC-78	0.642
NCI-H322M	0.681
LCLC-97TM1	0.159
A-427	0.786
NCI-H441	1.12
NCI-H1734	0.611
NCI-H460	0.643
NCI-H2347	0.75
201T	0.601
NCI-H1915	0.754

Cell Line	relative viability
HCC-827	0.235
LXF-289	1.06
NCI-H23	0.277
NCI-H647	0.527
NCI-H1651	0.423
EPLC-272H	0.149
NCI-H1792	0.682
NCI-H1355	0.806
NCI-H3122	0.969
NCI-H1437	1.11
NCI-H1755	0.449
HCC-15	1.06
PC-14	0.381
EKVX	0.738
LC-2-ad	0.886
NCI-H1975	0.708

compound: C1CSC2=C(C(=O)N1)SC3=C2C=C(C=C3)O [kb NB 142-70] + CC(=O)Nc1cccc(-n2c(=O)n(C3CC3)c(=O)c3c(Nc4ccc(I)cc4F)n(C)c(=O)c(C)c32)c1 [Trametinib] (partner 0.02 µM); assay: as above; details: first compound 0.1 µM
Method in brief: as §1

Cell Line	relative viability
ChaGo-K-1	0.883
NCI-H2405	0.604
HOP-62	0.401
HCC-44	1.06
LU99A	0.559
BEN	1.02
HARA	0.464
HCC-78	0.683
NCI-H322M	0.51
LCLC-97TM1	0.197
A-427	0.841
NCI-H441	0.473
NCI-H1734	0.717
NCI-H460	0.205
NCI-H2347	0.259
201T	0.687
NCI-H1915	0.332

Cell Line	relative viability
HCC-827	0.539
LXF-289	0.668
NCI-H23	0.37
NCI-H647	0.505
NCI-H1651	0.786
EPLC-272H	0.275
NCI-H1792	0.478
NCI-H1355	0.384
NCI-H3122	0.229
NCI-H1437	0.601
NCI-H1755	0.814
HCC-15	0.373
PC-14	0.808
EKVX	0.357
LC-2-ad	0.898
NCI-H1975	0.407

same assay, conditions: first compound 1 µM

Cell Line	relative viability
ChaGo-K-1	0.875
NCI-H2405	0.596
HOP-62	0.427
HCC-44	1.06
LU99A	0.598
BEN	0.99
HARA	0.726
HCC-78	0.823
NCI-H322M	0.525
LCLC-97TM1	0.183
A-427	0.764
NCI-H441	0.383
NCI-H1734	0.633
NCI-H460	0.192
NCI-H2347	0.267
201T	0.727
NCI-H1915	0.331

Cell Line	relative viability
HCC-827	0.53
LXF-289	0.662
NCI-H23	0.29
NCI-H647	0.51
NCI-H1651	0.858
EPLC-272H	0.274
NCI-H1792	0.567
NCI-H1355	0.387
NCI-H3122	0.225
NCI-H1437	0.704
NCI-H1755	0.742
HCC-15	0.355
PC-14	0.769
EKVX	0.378
LC-2-ad	0.937
NCI-H1975	0.339

same assay, conditions: first compound 3.162 µM

Cell Line	relative viability
ChaGo-K-1	0.876
NCI-H2405	0.643
HOP-62	0.545
HCC-44	1.1
LU99A	0.467
BEN	0.892
HARA	1.02
HCC-78	0.838
NCI-H322M	0.598
LCLC-97TM1	0.174
A-427	0.726
NCI-H441	0.287
NCI-H1734	0.531
NCI-H460	0.228
NCI-H2347	0.233
201T	0.752
NCI-H1915	0.37

Cell Line	relative viability
HCC-827	0.395
LXF-289	0.69
NCI-H23	0.278
NCI-H647	0.597
NCI-H1651	0.834
EPLC-272H	0.295
NCI-H1792	0.579
NCI-H1355	0.447
NCI-H3122	0.274
NCI-H1437	0.502
NCI-H1755	0.836
HCC-15	0.444
PC-14	0.799
EKVX	0.296
LC-2-ad	0.875
NCI-H1975	0.248
